From BigSolDB 2.1

COc1ccc2nc(S(=O)Cc3ncc(C)c(OC)c3C)[nH]c2c1 (stereo unspecified)
solubility (mole fraction)
Details | in THF | in acetone | in acetonitrile | in ethanol | in ethyl acetate | in methanol | in n-butanol | in water
278.15 K | 0.00458 | 0.00146 | 0.00118 | 0.00157 | 0.000981 | 0.00206 | 0.00128 | 4.07e-05
283.15 K | 0.00644 | 0.00173 | 0.00143 | 0.00187 | 0.00112 | 0.00264 | 0.00153 | 5e-05
288.15 K | 0.00843 | 0.00215 | 0.00182 | 0.00224 | 0.00134 | 0.00348 | 0.00196 | 6.15e-05
293.15 K | 0.0113 | 0.00265 | 0.00222 | 0.00261 | 0.00156 | 0.00435 | 0.0024 | 7.64e-05
298.15 K | 0.0146 | 0.00313 | 0.00273 | 0.00347 | 0.00185 | 0.00569 | 0.00303 | 9.36e-05
303.15 K | 0.0196 | 0.00377 | 0.00354 | 0.00413 | 0.0022 | 0.00686 | 0.0037 | 0.000115
308.15 K | 0.0259 | 0.00464 | 0.00429 | 0.00509 | 0.00253 | 0.00857 | 0.00455 | 0.000138
313.15 K | 0.0327 | 0.00541 | 0.00513 | 0.00605 | 0.00293 | 0.0106 | 0.0054 | 0.000165
318.15 K | 0.0425 | 0.00637 | 0.00607 | 0.00702 | 0.00343 | 0.0129 | 0.0065 | 0.000196
323.15 K | 0.0545 | 0.00739 | 0.00711 | 0.00832 | 0.00405 | 0.0156 | 0.00779 | 0.00023
328.15 K | 0.0663 | 0.0085 | 0.00843 | 0.00982 | 0.0047 | 0.0186 | 0.00884 | 0.000263
333.15 K | 0.0789 | 0.00982 | 0.00978 | 0.0113 | 0.00523 | 0.0216 | 0.0103 | 0.000299
